Test results from patent publication US7173030B2, “Inhibitors of 11-β-hydroxy steroid dehydrogenase type 1” (Biovitrum AB, priority 2003, dated 2007).
Blank lines part the entries; values can stand above or below the molecule they belong to.

Experiments:
[1] = target: T1, human 11-β-hydroxysteroid dehydrogenase type-1 enzyme (11-β-HSD1) (Homo sapiens, UniProt P28845); test: Scintillation proximity assay: human 11-β-HSD1 enzyme assay; format: biochemical; conditions: Ki calculated from IC50 (Cheng Prushoff)
T1 construct: made in house; host or cells: Pichia pastoris
T1 sequence (P28845 whole entry): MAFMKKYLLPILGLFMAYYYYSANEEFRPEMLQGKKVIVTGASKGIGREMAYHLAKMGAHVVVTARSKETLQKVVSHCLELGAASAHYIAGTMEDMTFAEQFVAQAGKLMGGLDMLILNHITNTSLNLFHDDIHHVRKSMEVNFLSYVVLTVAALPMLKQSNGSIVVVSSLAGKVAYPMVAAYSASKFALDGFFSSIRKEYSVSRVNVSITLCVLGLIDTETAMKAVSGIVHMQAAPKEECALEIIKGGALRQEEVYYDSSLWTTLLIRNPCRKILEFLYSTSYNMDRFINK
Text: [1,2(n)-^3H]-cortisone was purchased from Amersham Pharmacia Biotech. Anti-cortisol monoclonal mouse antibody, clone 6D6.7 was obtained from Immunotech and Scintillation proximity assay (SPA) beads coated with monoclonal antimouse antibodies were from Amersham Pharmacia Biotech. NADPH, tetrasodium salt was from Calbiochem and glucose-6-phosphate (G-6-P) was supplied by Sigma. The human 11-β-hydroxysteroid dehydrogenase type-1 enzyme (11-β-HSD1) was expressed in Pichia pastoris. 18-β-glycyrrhetinic acid (GA) was obtained from Sigma. The serial dilutions of the compounds were performed on a Tecan Genesis RSP 150. […]
The multiplication of plates was done on a WallacQuadra. The amount of the product [^3H]-cortisol, bound to the beads was determined in a Packard, Top Count microplate liquid scintillation counter. […]
The plates were covered with plastic film and incubated on a shaker for 30 minutes, at room temperature, before counting. The amount of [^3H]-cortisol, bound to the beads was determined in a microplate liquid scintillation counter.
The calculation of the Ki values for the inhibitors was performed by use of Activity Base. The Ki value is calculated from IC50 and the Km value is calculated using the Cheng Prushoff equation (with reversible inhibition that follows the Michaelis-Menten equation): […] [Cheng, Y. C.; Prushoff, W. H. Biochem. Pharmacol. 1973, 22, 3099–3108]. […]

intraocular pressure = conditions: normal subjects; Raus et al 2001; cited from earlier work
[2] = tested on: hepatic insulin sensitivity; conditions: healthy human volunteers; Walker et al. 1995; cited from earlier work
Diabetic KKA^y mice = test: Wound healing of surgical wounds in diabetic KKA^y mice; format: in vivo; conditions: oral twice daily 200 mg/kg/day for 3.5 days
Experimental: Diabetic KKA^y mice underwent surgery during anesthesia whereby a catheter was inserted in the jugularis vein. Oral treatment twice daily (200 mg/kg/day) with the 11β-HSD1 inhibitor BVT.2733 (disclosed as Example 172A in WO 01/90090), or vehicle started 4–6 days later and continued for 3.5 days.
Advantageous effects on wound healing of the surgical wounds were observed during treatment.

Ki [1]: 321 nM
Molecule: Cc1ccc([N+](=O)[O-])cc1S(=O)(=O)Nc1nc(C(C)C)ns1 [Example 80, N-(3-isopropyl-1,2,4-thiadiazol-5-yl)-2-methyl-5-nitrobenzenesulfonamide]

Ki [1]: 219 nM
Molecule: CC(C)c1nnc(NS(=O)(=O)c2ccc(Oc3ccccc3)cc2)s1 [Example 244, N-(5-isopropyl-1,3,4-thiadiazol-2-yl)-4-phenoxybenzenesulfonamide]

Molecule: CC1(C)[C@@H](OC(=O)CCC(=O)O)CC[C@]2(C)[C@H]3C(=O)C=C4[C@@H]5C[C@@](C)(C(=O)O)CC[C@]5(C)CC[C@@]4(C)[C@]3(C)CC[C@@H]12 [carbenoxolone]
reduction of intraocular pressure (intraocular pressure): 20% | hepatic insulin sensitivity [2]: improved

Molecule: BVT.2733
animals showing complications during treatment period (Diabetic KKA^y mice; jugular catheter surgery, vehicle 58%): 24% | effects on wound healing of the surgical wounds (Diabetic KKA^y mice; compared to control mice): less pus in the wound, as well as better wound strength
